The values below come from patent US20190194148A1, “TETRAZOLE-CONTAINING 1,2-CYCLOPROPANE-CARBOXAMIDES” (Bayer Pharma Aktiengesellschaft, priority 2017, published 2019).

The subject of one data set is IL-8 secretion. In words: Bradykinin B1 receptor agonist-induced secretion of IL-8 in human IMR-90 cells. The format is cell-based. Conditions: IMR-90 cells stimulated with 0.1 μM Lys-[Des-Arg9]Bradykinin and 0.1 μM Sar-[D-Phe8]-des-Arg9-Bradykinin for 5 hours. From the text: (§1) Inhibitory Activity on Bradykinin B1 Receptor Agonist-Induced Secretion of IL-6 and IL-8 in Human IMR-90 Cells
(§2) The effect of the example compounds on cytokine secretion has been investigated in the human fetal lung fibroblast IMR-90 cell line. Here the induction of the cytokine secretion was induced by the Bradykinin B1 receptor agonists Lys-[Des-Arg9]Bradykinin and Sar-[D-Phe8]-des-Arg9-Bradykinin leading to the activation of the Bradykinin B1 receptor-driven signaling pathway.
(§3) IMR-90 cells were cultured in Eagle's Minimum Essential Medium (EMEM) containing 2 mM L-glutamine, 1 g/L glucose, 1.5 g/L NaHCO3, 1 mM sodium pyruvate and non-essential amino acids (ATCC, 30-2003™) supplemented with 10% FBS (Biochrom, S0615) and 50 U/mL Penicillin, 50 μg/mL Streptomycin (PAA, P11-010). The assay was performed in EMEM and a cell density of […] IMR-90 cells/96-well. The example compounds have been serial diluted in 100% DMSO and evaluated at 8 different concentrations within the range of 3 nM and 10 μM and a final DMSO concentration of 0.4%. […] The amount of IL-6 and IL-8 in the supernatant was determined using the Human Prolnflammatory 9-Plex (MSD, K15007B) according to manufacturer's instruction. The cell viability was measured using the CellTiter-Glo Luminescent Assay (Promega, G7571) following the manufacturers protocol. […]

A further data set deals with IMR-90 cells. In words: Cell viability of stimulated IMR-90 cells (CellTiter-Glo). The format is cell-based, human. On the procedure: IMR-90 cells were cultured in Eagle's Minimum Essential Medium (EMEM) containing 2 mM L-glutamine, 1 g/L glucose, 1.5 g/L NaHCO3, 1 mM sodium pyruvate and non-essential amino acids (ATCC, 30-2003™) supplemented with 10% FBS (Biochrom, S0615) and 50 U/mL Penicillin, 50 μg/mL Streptomycin (PAA, P11-010). The assay was performed in EMEM and a cell density of […] IMR-90 cells/96-well. The example compounds have been serial diluted in 100% DMSO and evaluated at 8 different concentrations within the range of 3 nM and 10 μM and a final DMSO concentration of 0.4%. The IMR-90 cells have been incubated with the respective concentration of the example compound for 30 min. The enhanced secretion of IL-6 and IL-8 was induced by the stimulation of these cells with 0.1 μM Lys-[Des-Arg9]Bradykinin (Tocris, 3225) and 0.1 μM Sar-[D-Phe8]-des-Arg9-Bradykinin (Tocris, 3230) for 5 hours at 37° C. and 5% CO2. Further, cells have been treated with Lys-[Des-Arg9] Bradykinin and Sar-[D-Phe8]-des-Arg9-Bradykinin as neutral control and with 0.1% DMSO as inhibitor control. The amount of IL-6 and IL-8 in the supernatant was determined using the Human Prolnflammatory 9-Plex (MSD, K15007B) according to manufacturer's instruction. The cell viability was measured using the CellTiter-Glo Luminescent Assay (Promega, G7571) following the manufacturers protocol.

A further data set relates to IL-6 secretion. In words: Bradykinin B1 receptor agonist-induced secretion of IL-6 in human IMR-90 cells. The format is cell-based. The following applies: IMR-90 cells stimulated with 0.1 μM Lys-[Des-Arg9]Bradykinin and 0.1 μM Sar-[D-Phe8]-des-Arg9-Bradykinin for 5 hours.
Source text: as §1, §2, §3

A further data set addresses T1, human B1 receptor (Homo sapiens, UniProt P46663).
T1 construct: host or cells: CHO-K1
T1 sequence (P46663 1-353): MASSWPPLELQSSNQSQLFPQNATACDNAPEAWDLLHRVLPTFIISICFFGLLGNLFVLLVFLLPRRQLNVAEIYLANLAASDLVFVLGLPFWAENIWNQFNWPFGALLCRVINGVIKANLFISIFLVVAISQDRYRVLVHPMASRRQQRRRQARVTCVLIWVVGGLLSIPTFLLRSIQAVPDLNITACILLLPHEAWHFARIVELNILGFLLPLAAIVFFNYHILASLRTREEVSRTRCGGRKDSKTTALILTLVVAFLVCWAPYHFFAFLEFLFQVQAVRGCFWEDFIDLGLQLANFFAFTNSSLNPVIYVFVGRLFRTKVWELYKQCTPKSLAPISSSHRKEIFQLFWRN
In words: Calcium flux assay (FLIPR) with recombinant CHO-K1 cells expressing human B1 receptor. The format is cell-based. An outline of the steps:
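Indicator-loaded CHO-K1 cells expressing human B1 receptor were pre-incubated with compound (8 concentrations, triplicate, 1% DMSO) for 30 min at 28° C, in assay buffer with or without 0.1% BSA (hB1 IC50 vs free IC50). They were then challenged with Lys-(Des-Arg)-bradykinin from plates at 3.5×EC90, with peak FLIPR fluorescence read at 538 nm. IC50 was fitted from % response between DMSO and full block by 20 μM Lys-(Des-Arg-Leu)-bradykinin.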
A general note: Calcium assays in cells follow changes in intracellular calcium, usually with a dye or a luminescent sensor.

In data set [1] the target is T2, native human B1 receptors (Homo sapiens, UniProt P46663).
T2 construct: which express native human B1 receptors after induction with human IL-1; Coriell Institute; host or cells: IMR-90 human foetal lung fibroblasts, induced with human IL-1beta
T2 sequence (P46663 1-353): T1 sequence (P46663 1-353)
In words: Calcium flux assay (FLIPR) with IMR-90 human fibroblasts for Bradykinin B1 receptor antagonist. The following applies: IMR-90 human foetal lung fibroblasts after induction with human IL-1; 0.1% BSA in assay buffer; read-out: hB1 IC50 IMR90. The format is cell-based. As to the method: Calcium Flux Assay (FLIPR) with Human Fibroblasts for Bradykinin B1 Receptor Antagonist (hB1 IMR-90 IC50)
The Calcium flux Assay was carried out utilising IMR-90 human foetal lung fibroblasts (American Type Culture Collection, Rockville, Md.; and Coriell Institute, Camden, N.J.), which express native human B1 receptors after induction with human IL-1[…].
The fibroblasts were cultured in complete growth media comprised of Dulbecco's modified Eagle's medium (DMEM; Sigma) containing 10% foetal bovine serum, 4 mM L-glutamine, and 1% nonessential amino acids. The cells were maintained in a humidified atmosphere with 5% CO2 at 37° C. and were sub-cultured at a ratio of 1:3, every other day.
For the assay, IMR-90 fibroblasts were harvested using TrypLE Express (GIBCO/Invitrogen) and seeded into 384-well plates (Corning Cellbinding Surface, Cat. 3683) at a density of 15000 cells/well. The following day, cells were treated with 0.35 ng/mL human IL-1[…] in 10% FBS/MEM for 3 h to up-regulate B1 receptors. Induced cells were loaded with fluorescent calcium indicator by incubation with 2.5 μM Fluo-4/AM (Invitrogen) at 37° C., 5% CO2 for 2 h in the presence of 2.5 mM probenecid in 1% FBS/MEM. Extracellular dye was removed by washing with assay buffer (2.5 mM probenecid and 0.1% BSA in 20 mM HEPES/HBSS without bicarbonate or phenol red, pH 7.5). Example compounds were assayed at 8 concentrations in triplicate. […] A peptide antagonist Lys-(Des-Arg-Leu)-Bradykinin (Bachem, Brackley) at 20 µM was used to determine the full inhibition as control. IC50 values were determined by the same way described for the FLIPR assay with recombinant cells.

Setting [2] is: absence of 0.1% BSA in assay buffer, read-out: hB1 free IC50.
Where [3] appears, read: presence of 0.1% BSA in assay buffer, read-out: hB1 IC50.

Where two headings read alike, the source gives them in different places.

In the case of `CC(C)(C)c1cn(-c2ccc(NC(=O)C3CC3c3ccc(Cl)cc3)cc2-c2nnn[nH]2)cn1` (racemic) [Example 48, N-[4-(4-tert-butyl-1H-imidazol-1-yl)-3-(1H-tetrazol-5-yl)phenyl]-2-(4-chlorophenyl)cyclo-propanecarboxamide], the IC50 in the data set with IL-8 secretion turned out to be 164 nM; with IL-6 secretion, 192 nM; on human B1 receptor (setting [2]), 10 nM; at human B1 receptor (setting [3]), 25 nM. Moreover, the “effect on the cell viability” value with IMR-90 cells is reported as “no effect”.
Take `CCOc1ccc(-c2ccc(NC(=O)C3CC3c3cccc(Cl)c3)cc2-c2nnn[nH]2)cn1` (racemic) [Example 19, 2-(3-Chlorophenyl)-N-[4-(6-ethoxypyridin-3-yl)-3-(1H-tetrazol-5-yl)phenyl]cyclopro-panecarboxamide]: the IC50 in data set [1] is 10 nM; on human B1 receptor (setting [2]) it was 6 nM.
For `COc1ccc(-c2ccc(NC(=O)C3CC3C3CCC(C)CC3)cc2-c2nnn[nH]2)cc1OC` (racemic) [Example 15, N-[3′,4′-dimethoxy-2-(1H-tetrazol-5-yl)biphenyl-4-yl]-2-(4-methylcyclohexyl)cyclo-propanecarboxamide], the results for the IC50 (in data set [1]; at human B1 receptor (setting [3])) were 25 nM and 5 nM, respectively.
Turning to `Cc1cccc(C2CC2C(=O)Nc2cc(-c3nnn[nH]3)c(-c3ccc(C(F)(F)F)nc3)cc2O)c1` (racemic) [Example 52, N-{2-Hydroxy-5-(1H-tetrazol-5-yl)-4-[6-(trifluoromethyl)pyridin-3-yl]phenyl}-2-(3-methylphenyl)cyclopro-panecarboxamide], the values for the 50% inhibitory concentration (IC50) (in data set [1]; on human B1 receptor (setting [2]); on human B1 receptor (setting [3])) were 78 nM, 41 nM and 37 nM, respectively.
For `COc1ccc(-c2ccc(NC(=O)C3CC3c3cccc(Cl)c3)cc2-c2nnn[nH]2)cc1OC` (racemic) [Example 8, 2-(3-chlorophenyl)-N-[3′,4′-dimethoxy-2-(1H-tetrazol-5-yl)biphenyl-4-yl]cyclo-propanecarboxamide] the same measures were 8 nM, 12 nM and 8 nM.
`CCOc1ccc(-c2ccc(NC(=O)C3CC3c3cccc(C)c3)cc2-c2nnn[nH]2)cn1` (racemic) [Example 18, N-[4-(6-Ethoxypyridin-3-yl)-3-(1H-tetrazol-5-yl)phenyl]-2-(3-methylphenyl)cyclopro-panecarboxamide]: the figures for the IC50 (in data set [1]; on human B1 receptor (setting [2]); at human B1 receptor (setting [3])) were 6 nM, 5 nM and 15 nM, respectively.

One may read the IC50 as the concentration needed to halve the response being measured.
